# Experimental data taken from patent publication US8632839B2, “Methods of forming self-supporting films for delivery of therapeutic agents” (priority 2010, dated 2014).
# Counter-ions that a name gives are not always drawn.
# Assay: saturation and payload limits for dip coating bupivacaine HCl on polyester mesh (FIG. 8)
# Assay type: physicochemical
# Details: Parietex monofilament polyester mesh without polymer film
# From the text: Further, it is believed that spraying films on a medical device (e.g., mesh) compared to other conventional methods, such as dip coating, provides increased loading of the therapeutic agent.
# More particularly FIG. 8 illustrates the loading limits for a polyester mesh (Parietex™ monofilament mesh) without a polymer film.
structure (smiles),measurement,setting,value
"CCCCN1CCCCC1C(=O)Nc1c(C)cccc1C (centres unmarked) [bupivacaine HCl, bupivacaine hydrochloride]",saturation and payload limit for dip coating solution,solution in MeOH,12 % w/v
same,saturation and payload limit for dip coating solution,solution in water,5 % w/v
